“And” between values parts separate entries of the source, which are not always exact repeats. Equal values may be shown once. Read-outs that look alike come from different tables or passages of the source.
Key:
[1] = target: T1, (Homo sapiens, UniProt P51532); experiment: TR-FRET ternary complex affinity and cooperativity, SMARCA4; type: binding
T1 construct: P51532, residues 1448–1569 with additional N-terminal SM residues; GST (TEV site) (N); His6 (TEV site) (N, cleaved yes); made in house; host or cells: SMARCA4^BD: Escherichia coli BL21(DE3)
T1 sequence (P51532 1448-1569): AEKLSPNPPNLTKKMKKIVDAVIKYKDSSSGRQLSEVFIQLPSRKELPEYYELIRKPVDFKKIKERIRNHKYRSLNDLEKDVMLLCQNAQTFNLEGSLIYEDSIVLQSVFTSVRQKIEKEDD

[2] = target: VCB: PROTAC: SMARCA4^BD ternary complex (Homo sapiens, UniProt P40337+P51532); experiment: as above; type: binding; design: P51532, residues 1448–1569 with additional N-terminal SM residues; GST (TEV site) (N); His6 (TEV site) (N, cleaved yes); made in house; host or cells: SMARCA4^BD: Escherichia coli BL21(DE3)
VCB: PROTAC: SMARCA4^BD ternary complex, sequence (P51532 1448-1569): as above
VCB: PROTAC: SMARCA4^BD ternary complex, sequence (P40337 54-213): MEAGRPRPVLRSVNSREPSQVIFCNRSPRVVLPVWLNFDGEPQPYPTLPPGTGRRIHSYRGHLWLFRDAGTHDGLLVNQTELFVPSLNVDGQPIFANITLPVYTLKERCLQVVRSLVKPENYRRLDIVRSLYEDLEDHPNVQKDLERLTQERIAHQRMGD
VCB: PROTAC: SMARCA4^BD ternary complex, sequence (Q15369 17-112 partner): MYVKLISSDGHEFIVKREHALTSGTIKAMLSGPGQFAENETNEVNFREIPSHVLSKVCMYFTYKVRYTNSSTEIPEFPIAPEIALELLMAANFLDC
VCB: PROTAC: SMARCA4^BD ternary complex, sequence (Q15370 1-104 partner): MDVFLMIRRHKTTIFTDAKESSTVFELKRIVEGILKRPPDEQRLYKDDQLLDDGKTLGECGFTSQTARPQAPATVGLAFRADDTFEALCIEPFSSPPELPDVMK

[3] = target: SMARCA2 (Homo sapiens, UniProt P51531); experiment: SMARCA2 capillary electrophoresis protein assay in RKO cells; type: cell-based; design: endogenous in cells; host or cells: RKO, NCI-H1568, A549, HCT116, LU99, HCC-364, HCT-15, HCC4006, SK-N-AS; conditions: mean ± SD
SMARCA2, sequence (P51531 whole entry): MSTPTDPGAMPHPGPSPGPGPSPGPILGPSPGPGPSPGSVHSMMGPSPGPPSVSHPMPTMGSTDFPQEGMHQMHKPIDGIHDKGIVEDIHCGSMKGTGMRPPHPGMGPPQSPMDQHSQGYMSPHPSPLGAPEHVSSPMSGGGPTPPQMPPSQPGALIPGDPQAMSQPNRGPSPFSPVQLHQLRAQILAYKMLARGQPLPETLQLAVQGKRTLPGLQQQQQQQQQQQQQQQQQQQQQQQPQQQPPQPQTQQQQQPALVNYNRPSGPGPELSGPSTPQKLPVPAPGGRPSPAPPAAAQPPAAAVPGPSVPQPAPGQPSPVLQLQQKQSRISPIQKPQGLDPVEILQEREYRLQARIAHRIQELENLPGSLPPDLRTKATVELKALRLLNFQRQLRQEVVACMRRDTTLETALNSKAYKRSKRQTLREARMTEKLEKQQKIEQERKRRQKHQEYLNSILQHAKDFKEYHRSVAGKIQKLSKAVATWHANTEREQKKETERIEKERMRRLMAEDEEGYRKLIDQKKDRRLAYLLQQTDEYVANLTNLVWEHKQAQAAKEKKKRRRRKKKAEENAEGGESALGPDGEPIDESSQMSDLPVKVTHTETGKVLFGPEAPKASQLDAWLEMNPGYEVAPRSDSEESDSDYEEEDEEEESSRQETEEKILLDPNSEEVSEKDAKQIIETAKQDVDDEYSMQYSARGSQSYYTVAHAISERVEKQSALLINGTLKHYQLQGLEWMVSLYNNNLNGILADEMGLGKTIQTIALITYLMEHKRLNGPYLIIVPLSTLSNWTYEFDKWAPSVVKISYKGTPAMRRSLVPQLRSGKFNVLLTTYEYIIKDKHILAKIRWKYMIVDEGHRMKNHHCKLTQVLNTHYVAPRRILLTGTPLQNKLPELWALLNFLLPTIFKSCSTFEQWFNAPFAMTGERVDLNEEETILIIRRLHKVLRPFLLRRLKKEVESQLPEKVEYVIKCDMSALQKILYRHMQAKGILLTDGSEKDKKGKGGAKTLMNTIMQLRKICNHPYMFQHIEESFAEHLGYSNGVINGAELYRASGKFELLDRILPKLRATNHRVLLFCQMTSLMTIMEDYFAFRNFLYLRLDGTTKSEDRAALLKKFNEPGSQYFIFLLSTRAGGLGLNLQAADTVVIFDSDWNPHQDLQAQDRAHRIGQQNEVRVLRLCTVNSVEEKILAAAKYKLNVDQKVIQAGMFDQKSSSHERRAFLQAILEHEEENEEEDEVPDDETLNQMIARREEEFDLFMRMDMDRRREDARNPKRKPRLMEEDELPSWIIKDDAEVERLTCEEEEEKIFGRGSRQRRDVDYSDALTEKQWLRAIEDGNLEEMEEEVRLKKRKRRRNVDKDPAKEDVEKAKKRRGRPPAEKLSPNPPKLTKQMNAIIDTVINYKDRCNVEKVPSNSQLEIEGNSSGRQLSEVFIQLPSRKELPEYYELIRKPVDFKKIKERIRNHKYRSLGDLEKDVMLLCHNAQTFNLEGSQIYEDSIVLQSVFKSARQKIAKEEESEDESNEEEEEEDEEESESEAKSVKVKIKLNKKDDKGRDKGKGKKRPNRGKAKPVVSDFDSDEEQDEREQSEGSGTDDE
Experimental: 130,000–200,000 cells were seeded in 24-well plates and incubated until settled down or overnight. Compounds were dissolved in DMSO and added to cells in indicated concentrations using a digital dispenser following an optional media change. […] For SMARCA2/4 half-life determination, 150,000 or 200,000 cells were seeded in 24-well plates. […] For SMARCA2/4 re-synthesis measurements, 200,000 cells were seeded in 24-well plates. […] Medium was removed, cells were washed with PBS and lysed with 80 µl Lysis Buffer (MSD Tris Lysis Buffer (#R60TX-2) + Halt Inhibitor Cocktail (100x) + Benzonase 0.5 µL/ml). Samples were frozen at −80 °C and thawed at room temperature before use. Samples were transferred to a V-bottom plate and insoluble debris was pelleted by centrifugation for 5 min at maximum speed. The supernatant was transferred to a fresh plate. Master Mix and Ladder were prepared according to manufacturer’s instructions for 12–230 kDa Wes Separation Module, 8 × 25 capillary cartridges, Protein Simple #SM-W004 with Anti-Rabbit Detection Module for Wes, Peggy Sue or Sally Sue, Protein Simple #DM-001. 4.8 µl lysate were mixed with 1.2 µl Master Mix to achieve a protein concentration of ~0.5 µg/µl. […] Wes plates were prepared and run according to manufacturer’s instructions. Proteins were quantified with accompanying Compass Software. SMARCA2/4 protein levels were normalised to GAPDH. […] Where applicable, curves were fitted using a 4-parametric logistic model.

[4] = target: T2, PBRM1 BD (Homo sapiens, UniProt Q86U86); experiment: TR-FRET binary and ternary (PROTAC + VCB) affinity, PBRM1 bromodomain; type: binding; conditions: individual replicates
T2 construct: GST (TEV site) (N); made in house; host or cells: Escherichia coli BL21(DE3)

[5] = target: T3, PBRM1BD5 (Homo sapiens, UniProt P40337+Q86U86); experiment: TR-FRET ternary complex affinity and cooperativity, PBRM1; type: binding; conditions: TR-FRET competition for PBRM1BD5, + VCB; mean ± SD; read-out: TR-FRET Ternary PBRM1BD EC50 (PROTAC + VCB)
T3 construct: GST (TEV site) (N); His6 (TEV site) (N, cleaved yes); made in house; host or cells: PBRM1^BD5: Escherichia coli BL21(DE3)
T3 sequence (Q86U86 645-766): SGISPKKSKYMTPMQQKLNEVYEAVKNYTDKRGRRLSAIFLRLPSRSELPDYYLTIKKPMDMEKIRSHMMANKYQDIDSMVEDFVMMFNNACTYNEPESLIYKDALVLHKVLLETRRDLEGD
T3 sequence (P40337 54-213): as the sequence (P40337 54-213) above
T3 sequence (Q15369 17-112 partner): as the sequence (Q15369 17-112 partner) above
T3 sequence (Q15370 1-104 partner): as the sequence (Q15370 1-104 partner) above

[6] = target: T4, VCB: PROTAC: SMARCA2^BD ternary complex (Homo sapiens, UniProt P51531); experiment: TR-FRET ternary complex affinity and cooperativity, SMARCA2; type: binding
T4 construct: P51531-2, residues 1373-1493 with additional N-terminal SM residues; GST (TEV site) (N); His6 (TEV site) (N, cleaved yes); made in house; host or cells: SMARCA2^BD: Escherichia coli BL21(DE3)
T4 sequence (P51531 with tags, fused parts or gaps isoform P51531-2): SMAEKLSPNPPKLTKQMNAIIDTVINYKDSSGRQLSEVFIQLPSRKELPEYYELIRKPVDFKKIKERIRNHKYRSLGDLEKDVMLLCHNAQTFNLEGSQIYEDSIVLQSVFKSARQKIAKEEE

[7] = binary, PROTAC alone, individual replicates, read-out: SMARCA4 BD EC50
[8] = PROTAC + VCB, individual replicates, read-out: Ternary SMARCA4 BD EC50 (PROTAC + VCB)
[9] = PROTAC + VCB, read-out: Ternary PBRM1 BD EC50 (PROTAC + VCB)
[10] = binary, PROTAC alone, read-out: PBRM1 EC50
[11] = binary, PROTAC alone, individual replicates, read-out: SMARCA2 BD EC50

Row | Compound | EC50 ([1]; TR-FRET competition for SMARCA4BD, without VCB, mean ± SD, read-out: TR-FRET SMARCA4BD EC50) [nM] | EC50 [1, 7] | EC50 [2, 8] | EC50 ([2]; TR-FRET competition for SMARCA4BD, + VCB, mean ± SD, read-out: TR-FRET Ternary SMARCA4BD EC50 (PROTAC + VCB)) [nM] | DC50 ([3]; RKO (4 h)) [nM] | DC50 ([3]; RKO (18 h)) [nM] | EC50 [4, 9] | EC50 [4, 10] | EC50 [5] [nM] | EC50 ([6]; TR-FRET competition for SMARCA2BD, without VCB, mean ± SD, read-out: TR-FRET SMARCA2BD EC50) [nM] | EC50 [6, 11]
1 | O=c1nc2n(C3CCCC3)c3ccccc3n2c2cccc(Br)c12 [compound 1] | 857 ± 64 | 800 nM and 849 nM and 927 nM | 824 nM and 894 nM and 817 nM | 844 ± 42 | > 25000 | > 25000 | 129 nM and 124 nM and 140 nM | 124 nM and 116 nM and 167 nM | 131 ± 8 | 425 ± 11 | 413 nM and 429 nM and 435 nM
2 | CN1CCN(c2nc(=O)c3ccccc3o2)CC1 [compound 14] | – | > 10000 nM | > 10000 nM | – | > 25000 | > 25000 | > 10000 nM | > 10000 nM | – | – | > 10000 nM
3 | CN1CCN(c2nc(=O)c3c(I)cccc3o2)CC1 [compound 16] | – | > 10000 nM | > 10000 nM | – | > 25000 | > 25000 | > 10000 nM | > 10000 nM | – | – | > 10000 nM
4 | CN1CCN(c2nc(=O)c3c(Br)cccc3o2)CC1 [compound 15] | – | > 10000 nM | > 10000 nM | – | > 25000 | > 25000 | > 10000 nM | > 10000 nM | – | – | > 10000 nM
5 | CN1CCN(c2nc(=O)c3c(F)cccc3o2)CC1 [compound 17] | – | > 10000 nM | > 10000 nM | – | > 25000 | > 25000 | > 10000 nM | > 10000 nM | – | – | > 10000 nM
